Results: patent US20260262643A1, “HERBICIDAL BENZOXAZINES” (FMC CORPORATION, priority 2022, published 2026)

Tests used:
[1] = test system: galium; experiment: Test A postemergence; type: in vivo, Galium aparine; conditions: 1000 g ai/ha, Postemergence; 0 to 100 scale
Text: (§1) Seeds of plant species selected from barnyardgrass (Echinochloa crusgalli), blackgrass (Alopecurus myosuroides), corn (Zea mays), foxtail, giant (giant foxtail, Setaria faberi), goosegrass (Eleusine indica), kochia (Bassia scoparia), oat, wild (wild oat, Avena fatua), pigweed, palmer (palmer amaranth, palmer pigweed, Amaranthus palmeri), Pigweed, Redroot (redroot pigweed, Amaranthus retroflexus), ragweed (common ragweed, Ambrosia artemisiifolia), ryegrass, Italian (italian ryegrass, Lolium multiflorum), soybean (Glycine max), and wheat (Triticum aestivum) were planted into a blend of loam soil and sand and treated preemergence with a directed soil spray using test chemicals formulated in a non-phytotoxic solvent mixture which included a surfactant. At the same time, plants selected from these crops and weed species and also galium (catchweed bedstraw, Galium aparine) and horseweed (Erigeron canadensis) were planted in pots containing the same blend of loam soil and sand and treated with postemergence applications of test chemicals formulated in the same manner. Plants ranged in height from 2 to 10 cm and were in the one- to two-leaf stage for the postemergence treatment. Treated plants and untreated controls were maintained in a greenhouse for 10 days, after which time all treated plants were compared to untreated controls and visually evaluated for injury. Plant response ratings, summarized in Table A, are based on a 0 to 100 scale where 0 is no effect and 100 is complete control. A dash (-) response means no test result.

[2] = test system: foxtail, giant; experiment: Test A postemergence; type: in vivo, Setaria faberi; conditions: 1000 g ai/ha, Postemergence; 0 to 100 scale
Text: as §1

[3] = test system: kochia; experiment: Test A postemergence; type: in vivo, Bassia scoparia; conditions: 1000 g ai/ha, Postemergence; 0 to 100 scale
Text: as §1

[4] = test system: blackgrass; experiment: Test A preemergence; type: in vivo, Alopecurus myosuroides; conditions: 1000 g ai/ha, 0 to 100 scale (0 no effect, 100 complete control), 10 days
Text: as §1

[5] = test system: foxtail, giant; experiment: Test A preemergence; type: in vivo, Setaria faberi; conditions: 1000 g ai/ha, 0 to 100 scale (0 no effect, 100 complete control), 10 days
Text: as §1

[6] = test system: kochia; experiment: Test A preemergence; type: in vivo, Bassia scoparia; conditions: 1000 g ai/ha, 0 to 100 scale (0 no effect, 100 complete control), 10 days
Text: as §1

[7] = test system: ragweed; experiment: Test A preemergence; type: in vivo, Ambrosia artemisiifolia; conditions: 1000 g ai/ha, 0 to 100 scale (0 no effect, 100 complete control), 10 days
Text: as §1

[8] = test system: ryegrass, Italian; experiment: Test A preemergence; type: in vivo, Lolium multiflorum; conditions: 1000 g ai/ha, 0 to 100 scale (0 no effect, 100 complete control), 10 days
Text: as §1

[9] = test system: horseweed; experiment: Test A postemergence; type: in vivo, Erigeron canadensis; conditions: 1000 g ai/ha, Postemergence; 0 to 100 scale
Text: as §1

[10] = test system: pigweed, palmer; experiment: Test A preemergence; type: in vivo, Amaranthus palmeri; conditions: 1000 g ai/ha, 0 to 100 scale (0 no effect, 100 complete control), 10 days
Text: as §1

[11] = test system: ragweed; experiment: Test A postemergence; type: in vivo, Ambrosia artemisiifolia; conditions: 1000 g ai/ha, Postemergence; 0 to 100 scale
Text: as §1

[12] = test system: ryegrass, Italian; experiment: Test A postemergence; type: in vivo, Lolium multiflorum; conditions: 1000 g ai/ha, Postemergence; 0 to 100 scale
Text: as §1

[13] = test system: pigweed, palmer; experiment: Test A postemergence; type: in vivo, Amaranthus palmeri; conditions: 1000 g ai/ha, Postemergence; 0 to 100 scale
Text: as §1

[14] = test system: goosegrass; experiment: Test A postemergence; type: in vivo, Eleusine indica; conditions: 1000 g ai/ha, Postemergence; 0 to 100 scale
Text: as §1

[15] = test system: blackgrass; experiment: Test A postemergence; type: in vivo, Alopecurus myosuroides; conditions: 1000 g ai/ha, Postemergence; 0 to 100 scale
Text: as §1

[16] = test system: goosegrass; experiment: Test A preemergence; type: in vivo, Eleusine indica; conditions: 1000 g ai/ha, 0 to 100 scale (0 no effect, 100 complete control), 10 days
Text: as §1

| SMILES | Plant response rating, Galium [1] | Plant response rating, Foxtail, Giant [2] | Plant response rating, Kochia [3] | Plant response rating, Blackgrass [4] | Plant response rating, Foxtail, Giant [5] | Plant response rating, Kochia [6] | Plant response rating, Ragweed [7] | Plant response rating, Ryegrass, Italian [8] | Plant response rating, Horseweed [9] | Plant response rating, Pigweed, Palmer [10] | Plant response rating, Ragweed [11] | Plant response rating, Ryegrass, Italian [12] | Plant response rating, Pigweed, Palmer [13] | Plant response rating, Goosegrass [14] | Plant response rating, Blackgrass [15] | Plant response rating, Goosegrass [16] |
| --- | --- | --- | --- | --- | --- | --- | --- | --- | --- | --- | --- | --- | --- | --- | --- | --- |
| Cc1nc(-c2cccc(C(=O)N3C[C@H](C)Oc4c(Cl)cccc43)c2)no1 [Compound 120] | 40 | 20 | 50 | 10 | 20 | 0 | 0 | 10 | 0 | 0 | 0 | 0 | 40 | 10 | 0 | 10 |
| C[C@H]1CN(C(=O)c2cccc(-n3cncn3)c2)c2cc([N+](=O)[O-])ccc2O1 [Compound 49] | 30 | 10 | 10 | 0 | 20 | 0 | 0 | 30 | 0 | 0 | 30 | 30 | 0 | 10 | 0 | 30 |
| Cc1nc(-c2cccc(C(=O)N3C[C@H](C)Oc4c(Cl)cccc43)c2)cs1 [Compound 125] | 40 | 20 | 50 | 0 | 20 | 0 |  | 60 | 0 | 30 | 0 | 0 | 40 | 0 | 20 | 20 |
| Cc1csc(-c2cccc(C(=O)N3C[C@H](C)Oc4c(Cl)cccc43)c2)n1 [Compound 124] | 30 | 40 | 30 | 0 | 80 | 0 | 0 | 60 | 0 | 30 | 0 | 0 | 60 | 0 | 0 | 60 |
